Entries after “also recorded” stand apart in the source; their conditions may differ.
Legend:
[1] = test system: gene expression of MPX, IL10, CD86, and IL4; assay: RT-qPCR of gene expression in zebra fish treated with peptide, Example 3; format: in vivo; settings: Day 13, FIG. 4
Method: Y axis (-ΔΔCT) represents the difference in the threshold cycle of amplification. **: P<0.01; ****: P<0.0001. Further, the RT(reversed-transcription)-qPCR was conducted to detect the quantity of gene expression of MPX, IL10, CD86, and IL4 in the zebra fish treated with AMSS according to the present example. […] (FIG. 4)

zebra fish [2] = assay: Treatment of obesity in zebra fish, Example 3: body weight and glucose; format: in vivo; settings: 0.03 μg/day/fish
Description: Zebra fish has been for a long time used as a model of obesity in many reports (Hasumura et al. Nutrition & Metabolism (2012); […] et al. Nutrition & Metabolism (2011); Oka et al. BMC Physiology (2010); Shimada et al. Nutrition & Metabolism (2015); Meguro et al. Scientific Reports (2019); Montalbano et al. Endocrine (2018); Yang et al. Cancer (2019)), which is also used herein as the subject of treatment of obesity with the peptides as disclosed herein. All peptides used in the present example were purified through CHT beads to remove endotoxin. LAL assay was further conducted and it was confirmed that the residue of endotoxin was under 0.25 EU/ml. Zebra fish was bred in 25° C. water (pH 6.5-7.5, conductivity 250-750 S·m^-1, NH3<0.25 ppm, NO2<0.25 ppm, NO3<0.5 ppm) and was fed with normal diet bid. (brine shrimp). Each group of experimentation comprises 10 zebra fish (n=10). The gavage feeding of Zebra fish follows the protocol disclosed in Collymore et al. (Journal of Visualized Experiment (2013)). During 13 days of experimentation, the zebra fish were fed once a day with the peptide fragments as disclosed herein in a 1× dose of 0.03 μg/day/fish. The weight of zebra fish was measured respectively on day 0, 1, 3, 6, 9, 12 and 13. In the present example, five groups of zebra fish were administered with the peptides as disclosed herein: […]

human TLR2 = molecular target: T1, human TLR2 (Homo sapiens, UniProt O60603); assay: TLR induction screening in recombinant HEK-293 with NF-KB driven SEAP reporter; format: cell-based; settings: final concentration 10 μg/ml; recombinant HEK-293 overexpressing human TLR; FIG. 1A
T1 construct: host or cells: recombinant HEK-293
T1 sequence (O60603 21-784): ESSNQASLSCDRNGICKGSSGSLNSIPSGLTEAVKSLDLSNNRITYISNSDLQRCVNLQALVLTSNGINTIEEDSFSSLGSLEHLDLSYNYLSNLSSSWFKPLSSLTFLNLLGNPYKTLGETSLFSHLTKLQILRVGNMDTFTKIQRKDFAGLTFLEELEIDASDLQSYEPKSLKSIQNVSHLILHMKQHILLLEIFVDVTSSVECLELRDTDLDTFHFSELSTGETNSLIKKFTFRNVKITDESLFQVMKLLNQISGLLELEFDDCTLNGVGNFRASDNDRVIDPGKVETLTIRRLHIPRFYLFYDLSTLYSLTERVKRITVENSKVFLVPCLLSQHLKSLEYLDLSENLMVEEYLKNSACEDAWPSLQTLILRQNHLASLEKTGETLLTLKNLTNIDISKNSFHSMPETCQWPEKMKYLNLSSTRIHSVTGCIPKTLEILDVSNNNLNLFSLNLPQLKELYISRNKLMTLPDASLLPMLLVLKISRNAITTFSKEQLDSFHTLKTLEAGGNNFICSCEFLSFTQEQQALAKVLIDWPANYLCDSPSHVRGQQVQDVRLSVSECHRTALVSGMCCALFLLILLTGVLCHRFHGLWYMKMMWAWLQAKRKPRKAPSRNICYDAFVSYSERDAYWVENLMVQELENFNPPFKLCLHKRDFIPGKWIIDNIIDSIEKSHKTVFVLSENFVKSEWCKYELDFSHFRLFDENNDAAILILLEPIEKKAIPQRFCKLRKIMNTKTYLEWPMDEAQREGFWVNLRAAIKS
Method: Human Embryonic Kidney Cells 293 (HEK-293) were treated with the peptide fragments as disclosed herein.
Samples and controls are tested in duplicate on recombinant HEK-293 cell lines. These cell lines functionally overexpress human TLR as well as a reporter gene which is a secreted alkaline phosphatase (SEAP). The production of this reporter gene is driven by a NF-KB inducible promoter. The level of activation is given as optical density values (OD).
Samples in 100 μg/ml were diluted to a final concentration of 10 μg/ml in the reaction volume. Sample and controls are tested in duplicated wells. BSA is used as negative control.
SEAP reporter is detected as OD value. OD value is subtracted by average non-induced (NI) value. The NI subtracted duplicates are averaged and presented in a histogram. The reagents and materials employed in the instant examples were provided by Invivogen.

zebra fish [3] = assay: Zebra fish fed 6 times per day (autofat animal model), Example 5: body weight and glucose; format: in vivo; settings: Example 5, normal diet 6 times per day; for level of glucose: Day 13, FIG. 8 lower panel; for body weight at end of experimentation (Day 13) compared to the original level and the GST group: FIG. 8
Method: Zebra fish was bred in 25° C. water (pH 6.5-7.5, conductivity 250-750 S·m^−1, NH3<0.25 ppm, NO2<0.25 ppm, NO3<0.5 ppm) and was fed with normal diet bid. (brine shrimp). Each group of experimentation comprises 10 zebra fish (n=10). The gavage feeding of Zebra fish follows the protocol disclosed in Collymore et al. (Journal of Visualized Experiment (2013)). During 13 days of experimentation, the zebra fish were fed once a day with the peptide fragments as disclosed herein in a 1× dose of 0.03 μg/day/fish. The weight of zebra fish was measured respectively on day 0, 1, 3, 6, 9, 12 and 13. In the present example, five groups of zebra fish were administered with the peptides as disclosed herein: The material and method employed in the present example is similar to that of Example 3, which is not repeated herein, except the following difference. In the present example, Zebra fish was bred and fed with normal diet (brine shrimp) 6 times per day and also with the peptide as disclosed herein once per day, to induce an autofat animal model. In the present example, five groups of zebra fish were administered with the peptides as disclosed herein: […]

| Molecule | gene expression of IL4 [1] | gene expression of IL10 [1] | gene expression of MPX [1] | glucose detected in the serum of zebra fish (zebra fish [2]; Day 13, FIG. 3 lower panel) | reduction in body weight at end of experimentation (Day 13) (zebra fish [2]; Day 13 versus day 0, FIG. 3 upper panel) | change in body weight of zebra fish (zebra fish [2]; gavage once a day, 13 days, normal diet bid, FIG. 2) | reduction of body weight in average (zebra fish [2]; gavage once a day, end of experimentation, FIG. 2) | induction of TLR (SEAP reporter, OD) (human TLR2) | level of glucose (zebra fish [3]) | body weight at end of experimentation (Day 13) compared to the original level and the GST group (zebra fish [3]) |
| --- | --- | --- | --- | --- | --- | --- | --- | --- | --- | --- |
| AMS5: fragment of Amuc_1100*, sequence AINSLVNKLAECGLSKFIKVYRPQL (listed as Akkermansia muciniphila) | significantly reduced | significantly reduced | did not | did not reduce | shows statistical significance | significant reduction in body weight | approximately 20 mg | strongly and specifically activated; also recorded: capable to activate TLR2; also recorded: shows the activity for induction of TLR | – | – |
| AMS5-2: fragment of Amuc_1100*, sequence GLSKFIKVYRPQL (listed as Akkermansia muciniphila) | – | – | – | – | – | – | – | – | reduced | further reduced |
| Amuc_1100*: protein Amuc_1100 of Akkermansia muciniphila which does not include the transmembrane domain, SEQ ID NO.1 (protein, listed as Akkermansia muciniphila) IVNSKRSELDKKISIAAKEIKSANAAEITPSRSSNEELEKELNRYAKAVGSLETAYKPFLASSALVPTTPTAFQNELKTFRDSLISSCKKKNILITDTSSWLGFQVYSTQAPSVQAASTLGFELKAINSLVNKLAECGLSKFIKVYRPQLPIETPANNPEESDEADQAPWTPMPLEIAFQGDRESVLKAMNAITGMQDYLFTVNSIRIRNERMMPPPIANPAAAKPAAAQPATGAASLTPADEAAAPAAPAIQQVIKPYMGKEQVFVQVSLNLVHFNQPKAQEPSED | – | – | – | – | – | – | – | – | reduced | further reduced |

— patent US20210213097A1, “PEPTIDE INTERACTING WITH TOLL-LIKE RECEPTOR 2 AND THE COMPOSITION COMPRISING THE SAME” (NATIONAL TAIPEI UNIVERSITY OF TECHNOLOGY, priority 2020, published 2021)
